From US10618903B2, “Heteroaryl substituted aminopyridine compounds” (BRISTOL-MYERS SQUIBB COMPANY, priority 2015, dated 2020)

What was measured:
IRAK4 = IRAK4 (Homo sapiens (Human), UniProt Q9NWZ3); experiment: IRAK4 Inhibition Assay; format: biochemical; conditions: ATP 500 μM; IRAK4 0.6 nM
Outline: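 Enzyme 0.6 nM, ATP 500 μM, FL-peptide 1.5 μM, DMSO 1.6%; HEPES pH 7.2/MgCl2/Brij 35/DTT buffer. RT, 60 min, EDTA stop. Mobility-shift product/substrate ratio; % inhib vs no-enzyme and vehicle controls.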

[1] = tested on: IL-6 levels in human whole blood stimulated with a TLR2 agonist; experiment: IRAK4 Whole Blood Assay (lipoteichoic acid/TLR2-stimulated IL-6); format: cell-based; conditions: lipoteichoic acid 10 μg/mL, IL-6 readout
Experimental: Human whole blood containing the anti-coagulant ACD-A was plated in 384-well plate (25 μL/well) and incubated with compounds for 60 minutes at 37° C. in a 5% CO2 incubator. The blood was stimulated with a TLR2 agonist, 10 μg/mL final concentration of lipoteichoic acid (Invivogen, San Diego, Calif.) in 25 μL RPMI (Gibco) for 5 hours in a 5% CO2 incubator. At the end of the incubation, plates were centrifuged at 2300 rpm for 5 minutes. Supernatants were harvested and analyzed for IL-6 levels by Flow Cytometry beads assay (BD Biosciences, San Jose, Calif.).

Sequence of IRAK4 (Q9NWZ3 whole entry): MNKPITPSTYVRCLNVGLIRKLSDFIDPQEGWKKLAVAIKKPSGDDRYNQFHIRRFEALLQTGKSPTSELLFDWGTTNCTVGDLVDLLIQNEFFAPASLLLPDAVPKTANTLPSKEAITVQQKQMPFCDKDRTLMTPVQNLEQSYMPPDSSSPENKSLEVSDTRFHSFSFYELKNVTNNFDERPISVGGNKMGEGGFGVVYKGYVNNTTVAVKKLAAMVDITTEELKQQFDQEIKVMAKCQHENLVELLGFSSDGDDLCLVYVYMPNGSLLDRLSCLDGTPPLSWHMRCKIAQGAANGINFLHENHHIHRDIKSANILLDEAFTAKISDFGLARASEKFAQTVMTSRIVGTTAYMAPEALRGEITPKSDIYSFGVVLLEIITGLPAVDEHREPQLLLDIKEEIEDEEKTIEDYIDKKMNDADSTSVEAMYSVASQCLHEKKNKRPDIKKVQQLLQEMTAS

SMILES	IC50 (IRAK4)	EC50 ([1]; Homo sapiens)	EC50 [1]
COC1CC(Nc2cc(-c3cnn4cc(Cl)cnc34)ncc2C(=O)NC[C@@H](F)C(C)(C)O)CC1(F)F (single isomer, unassigned) [Example 13]	0.007 µM	4.45 µM	
CC(C)(O)[C@H](F)CNC(=O)c1cnc(-c2cnc3cc(Cl)cnn23)cc1Nc1cnn(CC(F)(F)F)c1 [Example 275, (R)-6-(7-chloroimidazo[1,2-b]pyridazin-3-yl)-N-(2-fluoro-3-hydroxy-3-methylbutyl)-4-((1-(2,2,2-trifluoroethyl)-1H-pyrazol-4-yl)amino)nicotinamide]	0.001 µM	0.44 µM	
CC(C)Nc1cc(-c2cnc3cc(C#N)cnn23)ncc1C(=O)NCC(F)C1CC(C)OC(C)C1 (stereo not drawn) [Example 203, 6-(7-cyanoimidazo[1,2-b]pyridazin-3-yl)-N-(2-(2,6-dimethyltetrahydro-2H-pyran-4-yl)-2-fluoroethyl)-4-(isopropylamino)nicotinamide]	0.005 µM	0.89 µM	
CC(C)(CO)Nc1cc(-c2cnn3cc(Cl)cnc23)ncc1C(=O)NC[C@@H](F)C(C)(C)O [Example 7, (R)-6-(6-chloropyrazolo[1,5-a]pyrimidin-3-yl)-N-(2-fluoro-3-hydroxy-3-methylbutyl)-4-((1-hydroxy-2-methylpropan-2-yl)amino)nicotinamide]	0.002 µM	0.57 µM	
CC(C)(O)[C@H](F)CNC(=O)c1cnc(-c2cnc3cc(C#N)cnn23)cc1NC1CC1 [Example 182, (R)-6-(7-cyanoimidazo[1,2-b]pyridazin-3-yl)-4-(cyclopropylamino)-N-(2-fluoro-3-hydroxy-3-methylbutyl)nicotinamide]	0.002 µM	0.62 µM	
CC(C)(O)[C@H](F)CNC(=O)c1cnc(-c2cnc3cc(C(F)F)cnn23)cc1NC1COC1 [Example 222, (R)-6-(7-(difluoromethyl)imidazo[1,2-b]pyridazin-3-yl)-N-(2-fluoro-3-hydroxy-3-methylbutyl)-4-(oxetan-3-ylamino)nicotinamide]	0.007 µM	0.63 µM	
CC(C)Nc1cc(-c2cnc3cc(C#N)cnn23)ncc1C(=O)NCCCn1ccnc1 [Example 214, N-(3-(1H-imidazol-1-yl)propyl)-6-(7-cyanoimidazo[1,2-b]pyridazin-3-yl)-4-(isopropylamino)nicotinamide]	0.011 µM	0.48 µM	
CC(C)(O)[C@H](F)CNC(=O)c1cnc(-c2cnc3cc(Cl)cnn23)cc1Nc1cnn(CCCF)c1 [Example 283, (R)-6-(7-chloroimidazo[1,2-b]pyridazin-3-yl)-N-(2-fluoro-3-hydroxy-3-methylbutyl)-4-((1-(3-fluoropropyl)-1H-pyrazol-4-yl)amino)nicotinamide]	0.002 µM	0.34 µM	
CC(C)(O)[C@H](F)CNC(=O)c1cnc(-c2cnc3cc(C#N)cnn23)cc1Nc1cnn(CC(F)(F)F)c1 [Example 276, (R)-6-(7-cyanoimidazo[1,2-b]pyridazin-3-yl)-N-(2-fluoro-3-hydroxy-3-methylbutyl)-4-((1-(2,2,2-trifluoroethyl)-1H-pyrazol-4-yl)amino)nicotinamide]	0.002 µM	0.08 µM	
CC(C)Nc1cc(-c2cnc3cc(F)cnn23)ncc1C(=O)NC[C@H](F)C(C)(C)O [Example 212, (S)—N-(2-fluoro-3-hydroxy-3-methylbutyl)-6-(7-fluoroimidazo[1,2-b]pyridazin-3-yl)-4-(isopropylamino)nicotinamide]	0.003 µM	0.98 µM	
CC(C)(O)[C@H](F)CNC(=O)c1cnc(-c2cnn3cc(C#N)cnc23)cc1N[C@@H](CO)Cc1ccccc1 [Example 101, 6-(6-cyanopyrazolo[1,5-a]pyrimidin-3-yl)-N—((R)-2-fluoro-3-hydroxy-3-methylbutyl)-4-(((R)-1-hydroxy-3-phenylpropan-2-yl)amino)nicotinamide]	0.007 µM	1.64 µM	
CC(C)n1cc(Nc2cc(-c3cnn4cc(Cl)cnc34)ncc2C(=O)NC[C@@H](F)C(C)(C)O)cn1 [Example 233, (R)-6-(6-chloropyrazolo[1,5-a]pyrimidin-3-yl)-N-(2-fluoro-3-hydroxy-3-methylbutyl)-4-((1-isopropyl-1H-pyrazol-4-yl)amino)nicotinamide]	0.006 µM	0.57 µM	
CC(C)Nc1cc(-c2cnc3cc(C#N)cnn23)ncc1C(=O)NCC(F)(F)C(C)(C)O [Example 173, 6-(7-cyanoimidazo[1,2-b]pyridazin-3-yl)-N-(2,2-difluoro-3-hydroxy-3-methylbutyl)-4-(isopropylamino)nicotinamide]	0.006 µM	0.83 µM	
CC(C)(O)[C@H](F)CNC(=O)c1cnc(-c2cnn3cc(Cl)cnc23)cc1Nc1cccc(C#N)c1F [Example 35, (R)-6-(6-chloropyrazolo[1,5-a]pyrimidin-3-yl)-4-((3-cyano-2-fluorophenyl)amino)-N-(2-fluoro-3-hydroxy-3-methylbutyl)nicotinamide]	0.002 µM	2.44 µM	
CC(C)(O)[C@H](F)CNC(=O)c1cnc(-c2cnn3cc(Cl)cnc23)cc1NC1COCC1(F)F (single isomer, unassigned) [Example 18]	0.008 µM	1.15 µM	
CO[C@H]1CC[C@H](Nc2cc(-c3cnn4cc(Cl)cnc34)ncc2C(=O)NC[C@@H](F)C(C)(C)O)CC1 [Example 165, 6-(6-chloropyrazolo[1,5-a]pyrimidin-3-yl)-N—((R)-2-fluoro-3-hydroxy-3-methylbutyl)-4-(((1r,4R)-4-methoxycyclohexyl)amino)nicotinamide]	0.006 µM	0.47 µM	
CC(C)(O)[C@H](F)CNC(=O)c1cnc(-c2cnc3cc(Cl)cnn23)cc1N[C@H]1CC[C@H](C(C)(C)F)CC1 [Example 175, 6-(7-chloroimidazo[1,2-b]pyridazin-3-yl)-N—((R)-2-fluoro-3-hydroxy-3-methylbutyl)-4-(((1r,4R)-4-(2-fluoropropan-2-yl)cyclohexyl)amino)nicotinamide]	0.003 µM	0.48 µM	
CC(C)(O)[C@H](F)CNC(=O)c1cnc(-c2cnc3cc(C#N)cnn23)cc1N[C@H]1CC[C@H](C(C)(C)O)CC1 [Example 204, 6-(7-cyanoimidazo[1,2-b]pyridazin-3-yl)-N—((R)-2-fluoro-3-hydroxy-3-methylbutyl)-4-(((1r,4R)-4-(2-hydroxypropan-2-yl)cyclohexyl)amino)nicotinamide]	0.002 µM	0.26 µM	
C[C@@H](CF)Nc1cc(-c2cnc3cc(C#N)cnn23)ncc1C(=O)NCCC(C)(C)O [Example 221, (S)-6-(7-cyanoimidazo[1,2-b]pyridazin-3-yl)-4-((1-fluoropropan-2-yl)amino)-N-(3-hydroxy-3-methylbutyl)nicotinamide]	0.014 µM	0.57 µM	
CC(C)(O)[C@H](F)CNC(=O)c1cnc(-c2cnn3cc(Cl)cnc23)cc1NC1CCCOC1 (single isomer, unassigned) [Example 4]	0.013 µM		0.68 µM
CC(F)(F)Cn1cc(Nc2cc(-c3cnc4cc(C#N)cnn34)ncc2C(=O)NC[C@@H](F)C(C)(C)F)cn1 [Example 269, (R)-6-(7-cyanoimidazo[1,2-b]pyridazin-3-yl)-N-(2,3-difluoro-3-methylbutyl)-4-((1-(2,2-difluoropropyl)-1H-pyrazol-4-yl)amino)nicotinamide]	0.002 µM	0.56 µM	
CC(C)(O)[C@H](F)CNC(=O)c1cnc(-c2cnn3cc(C#N)cnc23)cc1Nc1cccc(C(N)=O)c1 [Example 111, (R)-4-((3-carbamoylphenyl)amino)-6-(6-cyanopyrazolo[1,5-a]pyrimidin-3-yl)-N-(2-fluoro-3-hydroxy-3-methylbutyl)nicotinamide]	0.003 µM	0.9 µM	
CO[C@H]1CC[C@H](Nc2cc(-c3cnc4cc(C#N)cnn34)ncc2C(=O)NC[C@@H](F)C(C)(C)O)CC1 [Example 196, 6-(7-cyanoimidazo[1,2-b]pyridazin-3-yl)-N—((R)-2-fluoro-3-hydroxy-3-methylbutyl)-4-(((1r,4R)-4-methoxycyclohexyl)amino) nicotinamide]	0.006 µM	0.64 µM	
CC(C)Nc1cc(-c2cnc3cc(C#N)cnn23)ncc1C(=O)NC1CCC(N(C)C)CC1 (stereo not drawn) [Example 215, 6-(7-cyanoimidazo[1,2-b]pyridazin-3-yl)-N-(4-(dimethylamino)cyclohexyl)-4-(isopropylamino)nicotinamide]	0.004 µM	0.6 µM	
CC(C)(O)[C@H](F)CNC(=O)c1cnc(-c2cnc3cc(Cl)cnn23)cc1NCCC(F)F [Example 210, (R)-6-(7-chloroimidazo[1,2-b]pyridazin-3-yl)-4-((3,3-difluoropropyl)amino)-N-(2-fluoro-3-hydroxy-3-methylbutyl)nicotinamide]	0.003 µM	0.98 µM	
CC(C)Nc1cc(-c2cnn3cc(Cl)cnc23)ncc1C(=O)NCCC(C)(C)F [Example 20, 6-(6-chloropyrazolo[1,5-a]pyrimidin-3-yl)-N-(3-fluoro-3-methylbutyl)-4-(isopropylamino)nicotinamide]	0.007 µM	2.53 µM	
CC(C)(O)[C@H](F)CNC(=O)c1cnc(-c2cnc3cc(Cl)cnn23)cc1NC1CC(F)(F)C1 [Example 206, (R)-6-(7-chioroimidazo[1,2-b]pyridazin-3-yl)-4-((3,3-difluorocyclobutyl)amino)-N-(2-fluoro-3-hydroxy-3-methylbutyl)nicotinamide]	0.004 µM	0.82 µM	
